Like-named read-outs stand apart in the source and are kept apart here. One block for each molecule: values may come before it. Positions of bridges follow the written chain, without caps; N, C: chain ends. Non-standard residues stand in square brackets, D forms with d. Residues, ends and D or L forms follow the SMILES beside them. Groups on a side chain read outwards from the residue. *: point of attachment. X1 = O=C(O)CC[C@H](NC(=O)CN1CCN(CC(=O)O)CCN(CC(=O)O)CCN(CC(=O)O)CC1)C(=O)N[C@@H](CCCCNC(=O)CNC(=O)CCCc1ccc(F)cc1)C(=O)*; X2 = Cc1ccc(CCCC(=O)NCC(=O)NCCCC[C@H](NC(=O)[C@H](CCC(=O)O)NC(=O)CN2CCN(CC(=O)O)CCN(CC(=O)O)CCN(CC(=O)O)CC2)C(=O)*)cc1; 2Nal = N[C@@H](Cc1ccc2ccccc2c1)C(=O)O; Lys(iPr) = CC(C)NCCCC[C@H](N)C(=O)O
Legend:
[1] = Biodistribution in Daudi tumor-bearing mice; format: in vivo; details: male, NOD.Cg-Rag1^tm1MomII2rg^tm1Wjl/SzJ (NRG), mouse, iv, total radioactivity; for tissue uptake at 3 h: Daudi tumor-bearing mice; for tissue uptake at 1 h: Daudi xenograft bearing mice
Method: (§1) For Daudi, Z138, GRANTA519 and Jeko1 xenografts, male NOD.Cg-Rag1^tm1MomII2rg^tm1Wjl/SzJ (NRG) mice were subcutaneously inoculated on the left flank with 5×10^6 cells (100 μL; 1:1 ratio of PBS/Matrigel) and tumors were grown to a size of 200-500 mm^3. For PC-3 xenografts, male NOD.Cg-Rag1^tm1MomII2rg^tm1Wjl/SzJ (NRG) mice were subcutaneously inoculated on the left flank with 5×10^6 PC-3 cells (100 μL; 1:1 ratio of PBS/Matrigel) and tumors were grown to a size of 200-400 mm^3.
(§2) The mice were euthanized via CO2 inhalation while anesthetized with isoflurane. Tissues were harvested, washed in PBS, blotted dry, weighed, and measured on a Hidex AMG Automatic Gamma Counter.

[2] = test system: Daudi Burkitt's lymphoma xenografts; assay: Biodistribution in Daudi tumor-bearing mice; format: in vivo; details: for Ratio Tumor: Blood / Ratio Tumor: Bone / Ratio Tumor: Liver / Ratio Tumor: Lung / Ratio Tumor: Muscle / Ratio Tumor: Spleen: Daudi tumor-bearing mice, 3 h; for Ratio Tumour:Blood / Ratio Tumour:Bone / Ratio Tumour:Liver / Ratio Tumour:Lung / Ratio Tumour:Muscle / Ratio Tumour:Spleen: Daudi xenograft bearing mice, 1 h
Method: as §1, §2

[3] = Daudi tumor, read-out: Biodistribution Daudi (tumor)
[4] = Daudi tumour, read-out: Biodistribution Daudi (tumour)
[5] = adrenals, read-out: Biodistribution Adrenals
[6] = blood, read-out: Biodistribution Blood
[7] = bone, read-out: Biodistribution Bone
[8] = brain, read-out: Biodistribution Brain
[9] = fat, read-out: Biodistribution Fat
[10] = heart, read-out: Biodistribution Heart
[11] = intestine, read-out: Biodistribution Intestine
[12] = kidney, read-out: Biodistribution Kidney
[13] = liver, read-out: Biodistribution Liver
[14] = lung, read-out: Biodistribution Lung
[15] = muscle, read-out: Biodistribution Muscle
[16] = pancreas, read-out: Biodistribution Pancreas
[17] = spleen, read-out: Biodistribution Spleen
[18] = stomach, read-out: Biodistribution Stomach
[19] = testes, read-out: Biodistribution Testes

tissue uptake at 3 h [1, 3]: 10.4 %ID/g | tissue uptake at 1 h [1, 4]: 8.78 %ID/g | tissue uptake at 3 h [1, 5]: 0.58 %ID/g | tissue uptake at 1 h [1, 5]: 1.66 %ID/g | tissue uptake at 3 h [1, 6]: 0.95 %ID/g | tissue uptake at 1 h [1, 6]: 4.6 %ID/g | tissue uptake at 3 h [1, 7]: 0.27 %ID/g | tissue uptake at 1 h [1, 7]: 0.66 %ID/g | tissue uptake at 3 h [1, 8]: 0.03 %ID/g | tissue uptake at 1 h [1, 8]: 0.07 %ID/g | tissue uptake at 3 h [1, 9]: 0.09 %ID/g | tissue uptake at 1 h [1, 9]: 0.35 %ID/g | tissue uptake at 3 h [1, 10]: 0.32 %ID/g | tissue uptake at 1 h [1, 10]: 1.27 %ID/g | tissue uptake at 3 h [1, 11]: 0.36 %ID/g | tissue uptake at 1 h [1, 11]: 0.85 %ID/g | tissue uptake at 3 h [1, 12]: 4.77 %ID/g | tissue uptake at 1 h [1, 12]: 6.21 %ID/g | tissue uptake at 3 h [1, 13]: 2.64 %ID/g | tissue uptake at 1 h [1, 13]: 2.61 %ID/g | tissue uptake at 3 h [1, 14]: 2.1 %ID/g | tissue uptake at 1 h [1, 14]: 7.23 %ID/g | tissue uptake at 3 h [1, 15]: 0.13 %ID/g | tissue uptake at 1 h [1, 15]: 0.43 %ID/g | tissue uptake at 3 h [1, 16]: 0.26 %ID/g | tissue uptake at 1 h [1, 16]: 0.62 %ID/g | tissue uptake at 3 h [1, 17]: 1.06 %ID/g | tissue uptake at 1 h [1, 17]: 2.82 %ID/g | tissue uptake at 3 h [1, 18]: 0.12 %ID/g | tissue uptake at 1 h [1, 18]: 0.19 %ID/g | tissue uptake at 3 h [1, 19]: 0.31 %ID/g | tissue uptake at 1 h [1, 19]: 0.8 %ID/g | Ratio Tumor: Blood [2]: 10.85 | Ratio Tumor: Bone [2]: 38.31 | Ratio Tumor: Liver [2]: 3.91 | Ratio Tumor: Lung [2]: 5.59 | Ratio Tumor: Muscle [2]: 83.68 | Ratio Tumor: Spleen [2]: 10.08 | Ratio Tumour:Blood [2]: 1.99 | Ratio Tumour:Bone [2]: 13.68 | Ratio Tumour:Liver [2]: 3.46 | Ratio Tumour:Lung [2]: 1.27 | Ratio Tumour:Muscle [2]: 21.47 | Ratio Tumour:Spleen [2]: 3.37
SMILES: CC(C)NCCCC[C@@H]1NC(=O)[C@H](Cc2ccc(O)cc2)NC(=O)[C@H](Cc2ccccc2)NC(=O)CC[C@H](C(=O)N[C@@H](CCCCNC(C)C)C(=O)N[C@@H](CCCCNC(=O)[C@H](CCC(=O)O)NC(=O)[C@H](CCCCNC(=O)CNC(=O)CCCc2ccc(F)cc2)NC(=O)[C@H](CCC(=O)O)NC(=O)CN2CCN(CC(=O)O)CCN(CC(=O)O)CCN(CC(=O)O)CC2)C(N)=O)NC(=O)CNC(=O)[C@H](Cc2ccc3ccccc3c2)NC(=O)[C@@H](CCCNC(=N)N)NC1=O [[^68Ga]Ga-BL27, metal not drawn] (FY[Lys(iPr)][dR][2Nal]G[dE][Lys(iPr)]K([Glu-X1])-NH2; lactam N-7)

tissue uptake at 3 h [1, 3]: 7.82 %ID/g | tissue uptake at 1 h [1, 4]: 4.59 %ID/g | tissue uptake at 3 h [1, 5]: 2.46 %ID/g | tissue uptake at 1 h [1, 5]: 2.53 %ID/g | tissue uptake at 3 h [1, 6]: 11.6 %ID/g | tissue uptake at 1 h [1, 6]: 14.7 %ID/g | tissue uptake at 3 h [1, 7]: 0.94 %ID/g | tissue uptake at 1 h [1, 7]: 1.14 %ID/g | tissue uptake at 3 h [1, 8]: 0.17 %ID/g | tissue uptake at 1 h [1, 8]: 0.19 %ID/g | tissue uptake at 3 h [1, 9]: 0.56 %ID/g | tissue uptake at 1 h [1, 9]: 0.64 %ID/g | tissue uptake at 3 h [1, 10]: 2.29 %ID/g | tissue uptake at 1 h [1, 10]: 3.21 %ID/g | tissue uptake at 3 h [1, 11]: 1 %ID/g | tissue uptake at 1 h [1, 11]: 1.21 %ID/g | tissue uptake at 3 h [1, 12]: 4.76 %ID/g | tissue uptake at 1 h [1, 12]: 5.41 %ID/g | tissue uptake at 3 h [1, 13]: 2.92 %ID/g | tissue uptake at 1 h [1, 13]: 2.92 %ID/g | tissue uptake at 3 h [1, 14]: 5.35 %ID/g | tissue uptake at 1 h [1, 14]: 7.11 %ID/g | tissue uptake at 3 h [1, 15]: 0.76 %ID/g | tissue uptake at 1 h [1, 15]: 0.96 %ID/g | tissue uptake at 3 h [1, 16]: 1.21 %ID/g | tissue uptake at 1 h [1, 16]: 1.49 %ID/g | tissue uptake at 3 h [1, 17]: 2.34 %ID/g | tissue uptake at 1 h [1, 17]: 2.21 %ID/g | tissue uptake at 3 h [1, 18]: 0.38 %ID/g | tissue uptake at 1 h [1, 18]: 0.47 %ID/g | tissue uptake at 3 h [1, 19]: 2.05 %ID/g | tissue uptake at 1 h [1, 19]: 1.73 %ID/g | Ratio Tumor: Blood [2]: 0.68 | Ratio Tumor: Bone [2]: 8.55 | Ratio Tumor: Liver [2]: 2.71 | Ratio Tumor: Lung [2]: 1.46 | Ratio Tumor: Muscle [2]: 10.49 | Ratio Tumor: Spleen [2]: 3.38 | Ratio Tumour:Blood [2]: 0.31 | Ratio Tumour:Bone [2]: 4.12 | Ratio Tumour:Liver [2]: 1.59 | Ratio Tumour:Lung [2]: 0.65 | Ratio Tumour:Muscle [2]: 4.82 | Ratio Tumour:Spleen [2]: 2.08
SMILES: Cc1ccc(CCCC(=O)NCC(=O)NCCCC[C@H](NC(=O)[C@H](CCC(=O)O)NC(=O)CN2CCN(CC(=O)O)CCN(CC(=O)O)CCN(CC(=O)O)CC2)C(=O)N[C@@H](CCC(=O)O)C(=O)NCCCC[C@H](NC(=O)[C@H](CCCCNC(C)C)NC(=O)[C@H]2CCC(=O)N[C@@H](Cc3ccccc3)C(=O)N[C@@H](Cc3ccc(O)cc3)C(=O)N[C@@H](CCCCNC(C)C)C(=O)N[C@H](CCCNC(=N)N)C(=O)N[C@@H](Cc3ccc4ccccc4c3)C(=O)NCC(=O)N2)C(N)=O)cc1 [[^68Ga]Ga-BL28, metal not drawn] (FY[Lys(iPr)][dR][2Nal]G[dE][Lys(iPr)]K([Glu-X2])-NH2; lactam N-7)
